From patent publication US10052320B2, “Substituted quinoxalines as FGFR kinase inhibitors” (ASTEX THERAPEUTICS LIMITED, priority 2011, dated 2018)
Where two headings read alike, the source gives them in different places.

Columns and labels:
[1] = target: FGFR2 (h) (Homo sapiens, UniProt P21802); assay: FGFR2 (enzymatic assay), TR-FRET; assay type: biochemical; details: read-out: FGFR 2 pIC50 (converted)
Procedure: In a final reaction volume of 30 μL, FGFR2 (h) (150 ng/ml) was incubated with 50 mM HEPES pH 7.5, 6 mM MnCl2, 1 mM DTT, 0.1 mM Na3VO4, 0.01% Triton-X-100, 500 nM Btn-Flt3 and 0.4 μM ATP in the presence of compound (1% DMSO final). […] Time-Resolved Fluorescence Resonance Energy Transfer (TR-FRET) signal (ex340 nm. Em 620 nm, em 655 nm) was measured afterwards and results are expressed in (Relative Fluorescence Units).

[2] = tested on: Ba/F3-FGFR1-transfected cells in the presence of 10 ng/ml murine IL3; assay: Ba/F3-FGFR1 (plus IL3) cellular proliferation counterscreen, Alamar Blue; assay type: cell-based; details: for IC50: Mus musculus
Method in brief: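 24 h cmpd exposure, 37 °C/5% CO2; phenol red-free RPMI-1640, 10% FBS; 20000 cells/well (384) or 10000 cells/well (96); Alamar Blue (0.15 mM resazurin) 4 h; RFU ex 540/em 590.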

[3] = target: Ba/F3-FGFR1-transfected cells (Homo sapiens, UniProt P11362); assay: Ba/F3-FGFR1 (minus IL3) cellular proliferation assay, Alamar Blue; assay type: cell-based; details: for BAF3-FGFR 1 (MIN IL3) 384 well pIC50: minus IL3, 384 well; for BAF3-FGFR 1 (MIN IL3) 96 well pIC50: minus IL3, 96 well
Sequence of Ba/F3-FGFR1-transfected cells (P11362 whole entry, change not shown): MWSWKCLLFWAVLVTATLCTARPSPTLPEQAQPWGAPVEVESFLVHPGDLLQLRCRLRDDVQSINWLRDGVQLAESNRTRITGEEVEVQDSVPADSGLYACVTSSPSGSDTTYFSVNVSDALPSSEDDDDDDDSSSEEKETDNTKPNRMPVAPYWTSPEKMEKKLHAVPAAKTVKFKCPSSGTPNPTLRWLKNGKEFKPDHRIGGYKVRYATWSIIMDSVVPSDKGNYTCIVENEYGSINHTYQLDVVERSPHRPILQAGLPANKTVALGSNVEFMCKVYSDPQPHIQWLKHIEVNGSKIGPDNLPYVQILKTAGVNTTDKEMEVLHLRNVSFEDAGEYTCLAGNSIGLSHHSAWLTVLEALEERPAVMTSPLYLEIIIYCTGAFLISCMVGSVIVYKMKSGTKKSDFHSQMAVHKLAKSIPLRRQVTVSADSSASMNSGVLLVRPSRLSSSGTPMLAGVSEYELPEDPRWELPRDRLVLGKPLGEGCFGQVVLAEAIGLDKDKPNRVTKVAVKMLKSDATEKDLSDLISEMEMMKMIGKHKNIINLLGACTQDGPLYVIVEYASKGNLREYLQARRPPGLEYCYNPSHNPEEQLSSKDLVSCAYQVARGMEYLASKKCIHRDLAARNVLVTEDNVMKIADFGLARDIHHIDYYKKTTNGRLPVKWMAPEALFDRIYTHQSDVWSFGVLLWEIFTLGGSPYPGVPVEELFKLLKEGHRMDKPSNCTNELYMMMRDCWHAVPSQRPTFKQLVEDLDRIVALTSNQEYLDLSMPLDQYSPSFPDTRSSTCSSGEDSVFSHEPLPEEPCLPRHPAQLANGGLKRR
Procedure: Ba/F3-FGFR1 (Minus IL3 or Plus IL3) (Cellular Proliferation Assay)
Cells were put in an incubator at 37° C. and 5% CO2. After 24 hours, 10 μl of Alamar Blue solution (0.5 mM K3Fe(CN)6, 0.5 mM KaFe(CN)6, 0.15 mM Resazurin and 100 mM Phosphate Buffer) was added to the wells, incubated for 4 hours at 37° C. and 5% CO2 before RFU's (Relative Fluorescence Units) (ex. 540 nm., em. 590 nm.) were measured in a flurorescence plate reader. […]
In a 96 well plate, 180 μl cell culture medium (phenol red free RPMI-1640, 10% FBS, 2 mM L-Glutamine and 50 μg/ml Gentamycin) containing 10000 cells per well of Ba/F3-FGFR1-transfected cells were pipette and 20 μl of compound dilution in DMSO was added. Cells were put in an incubator at 37° C. and 5% CO2. After 24 hours, 40 μl of Alamar Blue solution (0.5 mM K3Fe(CN)6, 0.5 mM KaFe(CN)6, 0.15 mM Resazurin and 100 mM Phosphate Buffer) was added to the wells, incubated for 4 hours at 37° C. and 5% CO2 before RFU's (Relative Fluorescence Units) (ex. 540 nm., em. 590 nm.) were measured in a flurorescence plate reader.

[4] = target: Ba/F3-KDR-transfected cells (Homo sapiens, UniProt P35968); assay: Ba/F3-KDR (minus IL3) cellular proliferation assay, Alamar Blue; assay type: cell-based
Sequence of Ba/F3-KDR-transfected cells (P35968 whole entry, change not shown): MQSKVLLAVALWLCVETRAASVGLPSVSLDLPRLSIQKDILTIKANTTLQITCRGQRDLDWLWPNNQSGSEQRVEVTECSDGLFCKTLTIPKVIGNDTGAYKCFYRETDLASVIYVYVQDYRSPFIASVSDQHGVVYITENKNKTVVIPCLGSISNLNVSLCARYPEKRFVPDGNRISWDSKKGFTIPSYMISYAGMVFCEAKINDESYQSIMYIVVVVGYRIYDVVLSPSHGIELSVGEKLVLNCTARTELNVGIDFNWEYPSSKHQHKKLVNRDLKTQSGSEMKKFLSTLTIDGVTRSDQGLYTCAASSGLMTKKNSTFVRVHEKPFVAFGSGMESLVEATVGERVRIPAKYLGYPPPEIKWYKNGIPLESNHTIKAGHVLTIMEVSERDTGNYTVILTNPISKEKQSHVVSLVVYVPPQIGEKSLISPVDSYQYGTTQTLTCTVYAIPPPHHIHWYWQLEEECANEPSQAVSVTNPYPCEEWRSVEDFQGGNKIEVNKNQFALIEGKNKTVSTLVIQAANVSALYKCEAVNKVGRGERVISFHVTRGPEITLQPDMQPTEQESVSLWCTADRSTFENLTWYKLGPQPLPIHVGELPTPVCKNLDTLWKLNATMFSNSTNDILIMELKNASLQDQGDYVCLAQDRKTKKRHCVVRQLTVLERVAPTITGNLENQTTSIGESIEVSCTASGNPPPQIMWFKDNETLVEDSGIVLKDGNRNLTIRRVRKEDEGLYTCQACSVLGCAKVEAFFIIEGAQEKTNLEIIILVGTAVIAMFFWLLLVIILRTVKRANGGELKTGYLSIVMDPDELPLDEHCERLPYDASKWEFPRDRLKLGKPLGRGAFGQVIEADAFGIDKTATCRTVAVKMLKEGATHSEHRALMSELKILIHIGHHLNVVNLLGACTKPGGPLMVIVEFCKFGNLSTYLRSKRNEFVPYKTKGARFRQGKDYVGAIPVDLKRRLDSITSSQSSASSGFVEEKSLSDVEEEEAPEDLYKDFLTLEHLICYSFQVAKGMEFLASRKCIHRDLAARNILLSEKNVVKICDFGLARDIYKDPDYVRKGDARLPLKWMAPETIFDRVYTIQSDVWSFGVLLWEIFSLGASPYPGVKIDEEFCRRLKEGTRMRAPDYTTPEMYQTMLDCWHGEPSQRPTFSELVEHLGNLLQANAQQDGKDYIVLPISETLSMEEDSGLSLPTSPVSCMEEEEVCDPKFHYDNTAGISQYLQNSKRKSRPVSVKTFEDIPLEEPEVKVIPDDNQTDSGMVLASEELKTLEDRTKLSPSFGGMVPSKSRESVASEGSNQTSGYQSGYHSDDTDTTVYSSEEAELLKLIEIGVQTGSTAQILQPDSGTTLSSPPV
Method in brief: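 Fluorescence (ex 540, em 590 nm) from resazurin reduction, read after 4 h with Alamar Blue, reports viability of Ba/F3-KDR cells after 24 h of compound treatment at 37 °C. Counterscreen wells also contained 10 ng/ml murine IL3.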

[5] = target: FGFR3 (h) (Homo sapiens, UniProt P22607); assay: FGFR3 (enzymatic assay), TR-FRET; assay type: biochemical; details: read-out: FGFR 3 pIC50 (converted)
Sequence of FGFR3 (h) (P22607 23-806): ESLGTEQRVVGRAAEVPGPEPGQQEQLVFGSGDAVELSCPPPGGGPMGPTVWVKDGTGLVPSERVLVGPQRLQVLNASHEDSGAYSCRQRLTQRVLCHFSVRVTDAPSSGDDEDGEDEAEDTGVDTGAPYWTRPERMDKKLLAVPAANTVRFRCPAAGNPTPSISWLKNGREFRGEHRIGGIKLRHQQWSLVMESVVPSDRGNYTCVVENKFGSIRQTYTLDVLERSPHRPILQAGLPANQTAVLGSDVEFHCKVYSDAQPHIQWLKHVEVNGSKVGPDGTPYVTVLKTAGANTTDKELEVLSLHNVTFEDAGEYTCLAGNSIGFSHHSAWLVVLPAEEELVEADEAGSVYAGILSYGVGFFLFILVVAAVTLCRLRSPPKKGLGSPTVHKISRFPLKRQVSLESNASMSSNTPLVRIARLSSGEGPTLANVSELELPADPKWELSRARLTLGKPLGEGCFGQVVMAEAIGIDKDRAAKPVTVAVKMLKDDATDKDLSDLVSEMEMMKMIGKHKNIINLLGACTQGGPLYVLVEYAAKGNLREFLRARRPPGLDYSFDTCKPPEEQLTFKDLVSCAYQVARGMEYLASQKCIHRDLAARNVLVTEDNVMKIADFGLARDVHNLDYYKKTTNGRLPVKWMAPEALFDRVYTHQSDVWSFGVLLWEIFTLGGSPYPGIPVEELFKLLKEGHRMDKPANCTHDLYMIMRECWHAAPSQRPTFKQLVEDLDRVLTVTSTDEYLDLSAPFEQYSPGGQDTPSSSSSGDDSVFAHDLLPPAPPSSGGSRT
Procedure: In a final reaction volume of 30 μL, FGFR3 (h) (40 ng/ml) was incubated with 50 mM HEPES pH 7.5, 6 mM MnCl2, 1 mM DTT, 0.1 mM Na3VO4, 0.01% Triton-X-100, 500 nM Btn-Flt3 and 25 μM ATP in the presence of compound (1% DMSO final). […] Time-Resolved Fluorescence Resonance Energy Transfer (TR-FRET) signal (ex340 nm. Em 620 nm, em 655 nm) was measured afterwards and results are expressed in RFU (Relative Fluorescence Units).

[6] = target: FGFR4 (h) (Homo sapiens, UniProt P22455); assay: FGFR4 (enzymatic assay), TR-FRET; assay type: biochemical; details: read-out: FGFR 4 pIC50 (converted)
Sequence of FGFR4 (h) (P22455 22-802): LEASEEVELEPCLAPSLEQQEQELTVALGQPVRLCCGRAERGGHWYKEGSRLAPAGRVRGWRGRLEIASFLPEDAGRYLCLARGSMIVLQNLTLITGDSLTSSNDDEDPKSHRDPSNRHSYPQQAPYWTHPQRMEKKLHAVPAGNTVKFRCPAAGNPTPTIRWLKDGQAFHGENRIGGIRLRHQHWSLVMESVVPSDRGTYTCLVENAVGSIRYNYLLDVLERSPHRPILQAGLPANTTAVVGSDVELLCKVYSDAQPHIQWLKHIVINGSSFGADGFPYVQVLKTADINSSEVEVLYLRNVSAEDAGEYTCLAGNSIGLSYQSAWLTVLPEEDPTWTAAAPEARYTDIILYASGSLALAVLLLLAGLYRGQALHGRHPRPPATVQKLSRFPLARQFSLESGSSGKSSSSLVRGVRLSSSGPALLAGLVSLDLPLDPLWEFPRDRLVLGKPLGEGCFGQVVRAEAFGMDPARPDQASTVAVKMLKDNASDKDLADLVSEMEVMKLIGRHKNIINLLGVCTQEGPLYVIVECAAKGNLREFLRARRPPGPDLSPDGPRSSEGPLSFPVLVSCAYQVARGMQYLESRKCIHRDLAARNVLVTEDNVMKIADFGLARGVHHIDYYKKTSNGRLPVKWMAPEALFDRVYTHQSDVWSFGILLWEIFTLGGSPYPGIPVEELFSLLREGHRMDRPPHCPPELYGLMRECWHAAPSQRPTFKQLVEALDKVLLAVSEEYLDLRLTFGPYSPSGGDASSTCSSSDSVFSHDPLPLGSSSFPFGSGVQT
Procedure: In a final reaction volume of 30 μL, FGFR4 (h) (60 ng/ml) was incubated with 50 mM HEPES pH 7.5, 6 mM MnCl2, 1 mM DTT, 0.1 mM Na3VO4, 0.01% Triton-X-100, 500 nM Btn-Flt3 and 5 μM ATP in the presence of compound (1% DMSO final). […] Time-Resolved Fluorescence Resonance Energy Transfer (TR-FRET) signal (ex340 nm. Em 620 nm, em 655 nm) was measured afterwards and results are expressed in RFU (Relative Fluorescence Units).

[7] = plus IL3, 384 well, read-out: BAF3-FGFR 1 (PLUS IL3) 384 well pIC50 (converted)
[8] = plus IL3, 96 well, read-out: BAF3-FGFR 1 (PLUS IL3) 96 well pIC50 (converted)

Sequence of FGFR2 (h) (P21802 22-821): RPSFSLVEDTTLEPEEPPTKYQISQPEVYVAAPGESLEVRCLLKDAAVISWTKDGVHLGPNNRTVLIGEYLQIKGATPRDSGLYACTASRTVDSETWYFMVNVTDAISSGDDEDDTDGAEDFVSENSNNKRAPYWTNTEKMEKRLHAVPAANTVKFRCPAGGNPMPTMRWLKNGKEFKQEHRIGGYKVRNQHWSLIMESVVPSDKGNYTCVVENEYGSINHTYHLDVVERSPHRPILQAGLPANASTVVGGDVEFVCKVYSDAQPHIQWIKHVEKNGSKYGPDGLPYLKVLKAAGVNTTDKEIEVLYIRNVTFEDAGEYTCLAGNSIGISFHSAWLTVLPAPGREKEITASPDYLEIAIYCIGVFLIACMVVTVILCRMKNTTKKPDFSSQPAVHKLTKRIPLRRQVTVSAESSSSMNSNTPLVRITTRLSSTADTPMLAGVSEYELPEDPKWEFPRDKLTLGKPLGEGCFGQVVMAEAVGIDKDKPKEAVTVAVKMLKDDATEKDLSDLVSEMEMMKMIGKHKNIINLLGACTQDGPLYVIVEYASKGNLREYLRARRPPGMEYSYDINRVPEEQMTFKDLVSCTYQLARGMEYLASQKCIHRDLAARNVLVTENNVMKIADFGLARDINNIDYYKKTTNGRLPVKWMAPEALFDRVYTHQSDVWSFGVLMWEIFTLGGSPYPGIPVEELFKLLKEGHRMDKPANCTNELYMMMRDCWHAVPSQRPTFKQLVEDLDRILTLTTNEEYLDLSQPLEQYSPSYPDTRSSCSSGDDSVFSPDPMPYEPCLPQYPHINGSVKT

Compound	IC50 [1] [nM]	melting point [°C]	BAF3-FGFR 1 (MIN IL3) 384 well pIC50 [3]	BAF3-KDR (MIN IL3) 384 well pIC50 ([4]; minus IL3)	IC50 [5] [nM]	IC50 [6] [nM]	BAF3-KDR (MIN IL3) 384 well pIC50 ([4]; minus IL3, 384 well)	BAF3-FGFR 1 (MIN IL3) 96 well pIC50 [3]	IC50 [2, 7] [nM]	BAF3-FGFR 1 (PLUS IL3) 384 well pIC50 ([2]; plus IL3, 384 well)	IC50 [2, 8] [nM]
COCC(O)CN(c1cc(OC)cc(OC)c1)c1ccc2ncc(-c3cccnc3)nc2c1 (single isomer, unassigned) [Compound 46]	12	154	6.49	<5	7.24	47.9			> 10000		
COCC(O)CN(c1cc(OC)cc(OC)c1)c1ccc2ncc(-c3cccnc3)nc2c1 (single isomer, unassigned) [Compound 47]	17.4	153	6.29	<5	22.4	115				<5	
COc1cc(OC)cc(N(CC#Cc2ncccn2)c2ccc3ncc(-c4cccnc4)nc3c2)c1 [Compound 2]	34.7	184	6.8	<5	56.2	195			7410		
COc1cc(OC)cc(N(CCO)c2ccc3ncc(-c4ccc(N5CCOCC5)nc4)nc3c2)c1 [Compound 19]	10.7	193	6.41	<5	1.95	17.8			> 10000		
COc1cc(OC)cc(N(CC2CC2)c2ccc3ncc(C#Cc4cncn4C)nc3c2)c1 [Compound 22]	95.5	166	<5		34.7	275	<5		> 10000		
COc1cc(OC)cc(N(CCCNCC(F)(F)F)c2ccc3ncc(-c4cnc(OC)nc4)nc3c2)c1 [Compound 26]	138	96	5.13	<5	100	479			> 10000		
COc1cc(OC)cc(N(CC2CC2)c2ccc3ncc(C(=O)Nc4cncn4C)nc3c2)c1 [Compound 27]	~4170	180	<5	<5	2630	> 10000		<5	> 10000		> 10000
COc1cc(OC)cc(N(CC2CC2)c2ccc3ncc(NC(=O)c4ccc(F)cc4)nc3c2)c1 [Compound 28]	6170	135	<5	<5	1200	> 10000			> 10000		> 10000
COc1cc(OC)cc(N(CC2CC2)c2ccc3ncc(-c4ccc5c(c4)OCO5)nc3c2)c1 [Compound 87]	955	144	<5.4		209	3550	<5.4				
COc1cc(OC)cc(N(CC2CC2)c2ccc3ncc(-c4cnc5[nH]ccc5c4)nc3c2)c1 [Compound 88]	1150	234	<5		380	> 10000	<5				

Now from value to molecule, other results behind:

IC50 [1] [nM]	melting point [°C]	BAF3-FGFR 1 (MIN IL3) 384 well pIC50 [3]	BAF3-KDR (MIN IL3) 384 well pIC50 ([4]; minus IL3)	IC50 [5] [nM]	IC50 [6] [nM]	BAF3-KDR (MIN IL3) 384 well pIC50 ([4]; minus IL3, 384 well)	BAF3-FGFR 1 (MIN IL3) 96 well pIC50 [3]	Compound	IC50 [2, 7] [nM]	BAF3-FGFR 1 (PLUS IL3) 384 well pIC50 ([2]; plus IL3, 384 well)	IC50 [2, 8] [nM]
676	162			282	> 10000		5.06	COc1cc(OC)cc(N(CC2CC2)c2ccc3ncc(-c4ccnc(N5CCOCC5)c4)nc3c2)c1 [Compound 90]			> 10000
661	155	<5	<5	263	2400		<5	COc1cc(OC)cc(N(CC2CC2)c2ccc3ncc(-c4cccc(N5CCOCC5)c4)nc3c2)c1 [Compound 92]			
> 10000	160	<5	<5	1450	> 10000			COc1cc(OC)cc(N(CC2CC2)c2ccc3ncc(-n4cccn4)nc3c2)c1 [Compound 95]			
6.17	179	6.42	5.33	2.45	28.8			COc1cc(OC)cc(N(CCCO)c2ccc3ncc(-c4cnc(N5CCN(C)CC5)c(C)c4)nc3c2)c1 [Compound 135]			
8.32	172	5.75	5.67	8.51	42.7			COc1cc(OC)cc(N(CCCNC(C)C)c2ccc3ncc(-c4ccnc(NC(=O)OC(C)(C)C)c4)nc3c2)c1 [Compound 137]			
3.63	194		5.55	0.832	7.24			COc1cc(OC)cc(N(CCO)c2ccc3ncc(-c4ccc(N5CCNCC5)cc4)nc3c2)c1 [Compound 166]	4790		
